Results taken from ChEMBL document CHEMBL3885881, “DrugMatrix”.

Species on record: Rattus norvegicus
Assay: DrugMatrix - Regimen: Daily Repeat
Format: toxicity, organism-based, Sprague-Dawley
Set-up: regimen Daily Repeat, gender Male, age 6-8 weeks
Details: in vivo, po, 10 mg/kg, route oral GAVAGE, dose level Low, vehicle .5 % CMC; for ABSOLUTE BASOPHIL / ABSOLUTE EOSINOPHIL / ABSOLUTE LYMPHOCYTE / ABSOLUTE MONOCYTE / ABSOLUTE SEGMENTED NEUTROPHIL / BASOPHIL / EOSINOPHIL / ERYTHROCYTE COUNT / HEMATOCRIT / HEMOGLOBIN / LEUKOCYTE COUNT / LYMPHOCYTE / MEAN CORPUSCULAR HEMOGLOBIN / MEAN CORPUSCULAR HEMOGLOBIN CONCENTRATION / MEAN CORPUSCULAR VOLUME / MONOCYTE / NEUTROPHIL / NUCLEATED RED BLOOD CELLS / PLATELET COUNT: tissue Blood; for ALANINE AMINOTRANSFERASE / ALBUMIN / ALKALINE PHOSPHATASE / ASPARTATE AMINOTRANSFERASE / BLOOD UREA NITROGEN / CARBON DIOXIDE / CHLORIDE / CHOLESTEROL / CREATINE PHOSPHOKINASE / CREATININE / GLUCOSE / LACTATE DEHYDROGENASE / LIPASE / PHOSPHORUS / POTASSIUM / SODIUM / TOTAL BILIRUBIN / TOTAL PROTEIN / URIC ACID: tissue Plasma

## Fc1ccc(C(c2ccc(F)cc2)N2CCN(C/C=C/c3ccccc3)CC2)cc1 [FLUNARIZINE]
72 h, time 3 day
  ABSOLUTE BASOPHIL: 0 CELLS/uL
  ABSOLUTE EOSINOPHIL: 0 CELLS/uL
  ABSOLUTE LYMPHOCYTE: 15150 CELLS/uL
  ABSOLUTE MONOCYTE: 74.33 CELLS/uL
  ABSOLUTE SEGMENTED NEUTROPHIL: 1309 CELLS/uL
  BASOPHIL: 0%
  EOSINOPHIL: 0%
  ERYTHROCYTE COUNT: 6.09 x10E6/uL
  HEMATOCRIT: 37.17%
  HEMOGLOBIN: 14.73 G/DL
  LEUKOCYTE COUNT: 16.53 x10E3/uL
  LYMPHOCYTE: 91.33%
  MEAN CORPUSCULAR HEMOGLOBIN: 24.2 pg
  MEAN CORPUSCULAR HEMOGLOBIN CONCENTRATION: 39.67 G/DL
  MEAN CORPUSCULAR VOLUME: 61.03 fL
  MONOCYTE: 0.33%
  NEUTROPHIL: 8.33%
  NUCLEATED RED BLOOD CELLS: 0.33 /100WBC
  PLATELET COUNT: 1291 x10E3/uL
  ALANINE AMINOTRANSFERASE: 42.67 u/L
  ALBUMIN: 4.7 G/DL
  ALKALINE PHOSPHATASE: 347.33 u/L
  ASPARTATE AMINOTRANSFERASE: 90.33 u/L
  BLOOD UREA NITROGEN: 18 mg/dL
  CARBON DIOXIDE: 20 mmol/L
  CHLORIDE: 101 MEQ/L
  CHOLESTEROL: 87.67 mg/dL
  CREATINE PHOSPHOKINASE: 406.67 u/L
  CREATININE: 0.23 mg/dL
  GLUCOSE: 149 mg/dL
  LACTATE DEHYDROGENASE: 371.67 u/L
  LIPASE: 9 u/L
  PHOSPHORUS: 12.27 mg/dL
  POTASSIUM: 6.75 MEQ/L
  SODIUM: 143.6 MEQ/L
  TOTAL BILIRUBIN: 0.2 mg/dL
  TOTAL PROTEIN: 6.57 G/DL
  URIC ACID: 1.67 mg/dL
120 h, time 5 day
  ABSOLUTE BASOPHIL: 0 CELLS/uL
  ABSOLUTE EOSINOPHIL: 122 CELLS/uL
  ABSOLUTE LYMPHOCYTE: 14703 CELLS/uL
  ABSOLUTE MONOCYTE: 297.33 CELLS/uL
  ABSOLUTE SEGMENTED NEUTROPHIL: 711 CELLS/uL
  BASOPHIL: 0%
  EOSINOPHIL: 0.67%
  ERYTHROCYTE COUNT: 5.61 x10E6/uL
  HEMATOCRIT: 36.03%
  HEMOGLOBIN: 14.1 G/DL
  LEUKOCYTE COUNT: 15.83 x10E3/uL
  LYMPHOCYTE: 93%
  MEAN CORPUSCULAR HEMOGLOBIN: 25.13 pg
  MEAN CORPUSCULAR HEMOGLOBIN CONCENTRATION: 39.17 G/DL
  MEAN CORPUSCULAR VOLUME: 64.2 fL
  MONOCYTE: 2%
  NEUTROPHIL: 4.33%
  NUCLEATED RED BLOOD CELLS: 0 /100WBC
  PLATELET COUNT: 1316 x10E3/uL
  ALANINE AMINOTRANSFERASE: 52 u/L
  ALBUMIN: 4.43 G/DL
  ALKALINE PHOSPHATASE: 419 u/L
  ASPARTATE AMINOTRANSFERASE: 84.33 u/L
  BLOOD UREA NITROGEN: 14.67 mg/dL
  CARBON DIOXIDE: 24 mmol/L
  CHLORIDE: 103.67 MEQ/L
  CHOLESTEROL: 74.33 mg/dL
  CREATINE PHOSPHOKINASE: 286 u/L
  CREATININE: 0.11 mg/dL
  GLUCOSE: 150.67 mg/dL
  LACTATE DEHYDROGENASE: 187.33 u/L
  LIPASE: 8.67 u/L
  PHOSPHORUS: 14.07 mg/dL
  POTASSIUM: 6.62 MEQ/L
  SODIUM: 147.27 MEQ/L
  TOTAL BILIRUBIN: 0.2 mg/dL
  TOTAL PROTEIN: 6.03 G/DL
  URIC ACID: 1.67 mg/dL
